Source: PMC11467430 (Scientific Reports, 2024)

Assays:
Candida rugosa lipase = conditions: read-out: IC50 against lipase; positive control; ref Chupeerach et al., 2022[35]; cited from earlier work
rabbit lung ACE = target: T1, rabbit lung ACE (Oryctolagus cuniculus, UniProt P12822); assay: ACE inhibitory assay; assay type: biochemical; conditions: IC50 against ACE, positive control; performed in this study
T1 sequence (P12822 34-1310): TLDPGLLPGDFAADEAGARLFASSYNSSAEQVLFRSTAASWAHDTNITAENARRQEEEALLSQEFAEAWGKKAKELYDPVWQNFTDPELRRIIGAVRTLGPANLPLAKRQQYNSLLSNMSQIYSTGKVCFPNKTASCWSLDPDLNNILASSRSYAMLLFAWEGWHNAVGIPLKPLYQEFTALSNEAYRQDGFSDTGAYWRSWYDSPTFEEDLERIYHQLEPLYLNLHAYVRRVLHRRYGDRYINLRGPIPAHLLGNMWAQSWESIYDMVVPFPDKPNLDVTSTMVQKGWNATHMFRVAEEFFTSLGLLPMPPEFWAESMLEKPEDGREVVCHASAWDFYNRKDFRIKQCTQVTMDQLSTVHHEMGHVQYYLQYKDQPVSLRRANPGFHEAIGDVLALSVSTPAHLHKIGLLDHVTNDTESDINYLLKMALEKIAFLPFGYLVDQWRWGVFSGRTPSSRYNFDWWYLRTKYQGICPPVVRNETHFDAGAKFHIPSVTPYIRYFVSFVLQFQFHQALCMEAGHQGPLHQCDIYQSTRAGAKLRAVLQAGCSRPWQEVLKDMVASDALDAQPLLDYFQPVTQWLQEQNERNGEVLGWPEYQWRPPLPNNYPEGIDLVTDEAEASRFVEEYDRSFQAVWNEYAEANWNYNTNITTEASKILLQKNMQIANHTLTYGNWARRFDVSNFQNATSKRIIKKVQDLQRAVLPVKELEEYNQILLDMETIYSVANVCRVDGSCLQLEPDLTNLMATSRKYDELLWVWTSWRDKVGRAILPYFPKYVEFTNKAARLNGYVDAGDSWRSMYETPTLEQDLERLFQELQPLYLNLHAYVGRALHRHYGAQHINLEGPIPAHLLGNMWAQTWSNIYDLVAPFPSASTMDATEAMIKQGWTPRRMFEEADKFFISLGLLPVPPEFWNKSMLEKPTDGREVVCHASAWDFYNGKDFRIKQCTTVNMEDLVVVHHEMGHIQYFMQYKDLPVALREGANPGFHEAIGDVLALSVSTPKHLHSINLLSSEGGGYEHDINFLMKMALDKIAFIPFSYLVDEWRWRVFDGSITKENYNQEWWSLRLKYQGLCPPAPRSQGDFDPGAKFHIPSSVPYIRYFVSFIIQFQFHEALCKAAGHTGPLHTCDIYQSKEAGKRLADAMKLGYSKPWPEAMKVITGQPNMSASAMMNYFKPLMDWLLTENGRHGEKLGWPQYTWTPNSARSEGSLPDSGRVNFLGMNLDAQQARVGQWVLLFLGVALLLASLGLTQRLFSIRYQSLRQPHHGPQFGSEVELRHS

Structure (SMILES) | IC50 (Candida rugosa lipase) [µM] | IC50 (rabbit lung ACE) [nM]
CCCCCCCCCCC[C@@H](C[C@@H]1OC(=O)[C@H]1CCCCCC)OC(=O)[C@H](CC(C)C)NC=O [Orlistat, orlistat] | 7.94 | 
NCCCC[C@H](N[C@@H](CCc1ccccc1)C(=O)O)C(=O)N1CCC[C@H]1C(=O)O [Lisinopril, lisinopril] |  | 1.79
